Data published in patent publication US4892887A, “N,N'-bis(sulfonyl)hydrazines having antineoplastic activity” (Yale University, priority 1988, dated 1990).
“Also recorded” adds a separate entry of the source. Read-outs that look alike come from different tables or passages of the source.

Key:
B16 melanoma = assay: Survival time of mice bearing the B16 melanoma; format: in vivo, mouse (C57B1 mice); settings: for Max. % T/C: Table IV, B16, at optimum effective daily dose; for Av. Change in wt., %: at optimum effective daily dose, B16 mice; for Max. % T/C B16 Melanoma: Table V
L1210 leukemia = assay: Survival time of mice bearing the L1210 leukemia; format: in vivo, mouse (CDF-1 mice); settings: for Av. Change wt. %: L1210 mice; for response vs control in vivo at 50 mg/kg / response vs control in vivo at 100 mg/kg / response vs control in vivo at 150 mg/kg: Mus musculus, read-out: % T/C; for Max. % T/C L1210 Leukemia: Table V
Description: The ascites cell forms of the L1210 leukemia, Sarcoma 180 and P388 leukemia were propagated in CDF-1 mice. […] Mice were weighed during the course of the experiments, and the percentage change in body weight from the onset to termination of therapy was used as an indication of host toxicity.
Each value represents the average of 5 animals per group.

[1] = 50 mg/kg once daily for six days
[2] = 100 mg/kg once daily for six days
[3] = 150 mg/kg once daily for six days
[4] = 144 h, 50 mg/kg once daily for six days, L1210
[5] = 144 h, 100 mg/kg once daily for six days, L1210

| Structure (SMILES) | Max. % T/C B16 Melanoma (B16 melanoma) | Max. % T/C L1210 Leukemia (L1210 leukemia) | also measured |
| --- | --- | --- | --- |
| Cc1ccc(S(=O)(=O)N(C)NS(=O)(=O)Cc2ccccc2)cc1 [Compound 6, N'-benzylsulfonyl-N-methyl-N-(p-toluenesulfonyl)hydrazine] |  |  | Max. % T/C (B16 melanoma): 172 % T/C; Av. Change in wt., % (B16 melanoma): -2.4%; Average Survival Time of Treated Animals, days ± SE (L1210 leukemia; [1]): 16.0 ± 3.4 days; Av. Change wt. % (L1210 leukemia; [1]): +10.8%; Average Survival Time of Treated Animals, days ± SE (L1210 leukemia; [2]): 12.6 ± 0.8 days; Av. Change wt. % (L1210 leukemia; [2]): +2.4%; Average Survival Time of Treated Animals, days ± SE (L1210 leukemia; [3]): 14.6 ± 1.9 days; Av. Change wt. % (L1210 leukemia; [3]): -4.3%; response vs control in vivo at 50 mg/kg (L1210 leukemia; [4]): 174%; response vs control in vivo at 100 mg/kg (L1210 leukemia; [5]): 137%; response vs control in vivo at 150 mg/kg (L1210 leukemia; 144 h, 150 mg/kg once daily for six days, L1210): 159%; activity against the L1210 leukemia (in words) (L1210 leukemia; mouse, in vivo): comparable to that of compounds 1-3 and 5; also recorded: relatively high level of activity; increase in survival time of mice bearing the L1210 leukemia (L1210 leukemia; optimal daily dosage level): 74% |
| CN(NS(=O)(=O)c1ccc2ccccc2c1)S(=O)(=O)c1ccc2ccccc2c1 [Compound 11, Nmethyl-N,N'bis(2-naphthalenesulfonyl)hydrazine] |  |  | Max. % T/C (B16 melanoma): 164 % T/C; Av. Change in wt., % (B16 melanoma): +4.6%; Average Survival Time of Treated Animals, days ± SE (L1210 leukemia; [1]): 11.4 ± 1.1 days; Av. Change wt. % (L1210 leukemia; [1]): +6.9%; Average Survival Time of Treated Animals, days ± SE (L1210 leukemia; [2]): 10.2 ± 0.4 days; Av. Change wt. % (L1210 leukemia; [2]): +3.0%; Average Survival Time of Treated Animals, days ± SE (L1210 leukemia; [3]): 14.0 ± 2.3 days; Av. Change wt. % (L1210 leukemia; [3]): -3.3%; response vs control in vivo at 50 mg/kg (L1210 leukemia; [4]): 127%; response vs control in vivo at 100 mg/kg (L1210 leukemia; [5]): 113%; response vs control in vivo at 150 mg/kg (L1210 leukemia; L1210, 144 h): 156% |
| Cc1ccc(S(=O)(=O)NN(C)S(=O)(=O)c2ccccc2)cc1 [Compound 14] | 178 % T/C | 153 % T/C |  |
| COc1ccc(S(=O)(=O)NN(C)S(=O)(=O)c2ccccc2)cc1 [Compound 15] | 191 % T/C | 136 % T/C |  |
| CN(NS(=O)(=O)c1ccc(Cl)cc1)S(=O)(=O)c1ccccc1 [Compound 16] | 148 % T/C | 122 % T/C |  |
| CN(NS(=O)(=O)c1ccc2ccccc2c1)S(=O)(=O)c1ccccc1 [Compound 18] | 181 % T/C |  |  |
| CN(NS(=O)(=O)c1ccc(Br)cc1)S(=O)(=O)c1ccccc1 [Compound 19] | 187 % T/C |  |  |
| Cc1ccc(S(=O)(=O)N(C)NS(=O)(=O)c2ccc(Br)cc2)cc1 [Compound 20, N'-(p-bromobenzenesulfonyl)-N-methyl-N-(p-toluenesulfonyl)hydrazine] | 161 % T/C | 169 % T/C |  |
| Cc1ccc(S(=O)(=O)N(C)NS(=O)(=O)c2ccc3ccccc3c2)cc1 [Compound 21, N'-(2-naphthalenesulfonyl)-N-methyl-N-(p-toluenesulfonyl)hydrazine] |  | 134 % T/C |  |
| Cc1ccc(S(=O)(=O)N(C)NS(=O)(=O)c2ccc([N+](=O)[O-])cc2)cc1 [Compound 22] | 192 % T/C |  |  |
| COc1ccc(S(=O)(=O)N(C)NS(=O)(=O)c2ccccc2)cc1 [Compound 23] | 151 % T/C | 178 % T/C |  |
| COc1ccc(S(=O)(=O)N(C)NS(=O)(=O)c2ccc(Cl)cc2)cc1 [Compound 24, N'-(p-chlorobenzenesulfonyl)-N-(p-methoxybenzene-sulfonyl)-N-methylhydrazine] | 170 % T/C |  |  |
| COc1ccc(S(=O)(=O)N(C)NS(=O)(=O)c2ccc(Br)cc2)cc1 [Compound 25] | 205 % T/C | 134 % T/C |  |
| COc1ccc(S(=O)(=O)N(C)NS(=O)(=O)c2ccc3ccccc3c2)cc1 [Compound 27] | 163 % T/C |  |  |
| COc1ccc(S(=O)(=O)N(C)NS(=O)(=O)Cc2ccccc2)cc1 [Compound 28] | 160 % T/C | 152 % T/C |  |
| CN(NS(=O)(=O)C=Cc1ccccc1)S(=O)(=O)c1ccc(Cl)cc1 [Compound 34] | 143 % T/C |  |  |

| Structure (SMILES) | Max. % T/C B16 Melanoma (B16 melanoma) | Max. % T/C L1210 Leukemia (L1210 leukemia) | also measured |
| --- | --- | --- | --- |
| CCS(=O)(=O)NN(C)S(=O)(=O)c1ccc(Cl)cc1 [Compound 36] | 164 % T/C |  |  |
| CN(NS(=O)(=O)c1ccccc1)S(=O)(=O)c1ccc(Br)cc1 [Compound 37, N'-benzenesulfonyl-N-(p-bromobenzenesulfonyl)-N-methylhydrazine] | 160 % T/C |  |  |
| Cc1ccc(S(=O)(=O)NN(C)S(=O)(=O)c2ccc(Br)cc2)cc1 [Compound 38, N-(p-bromobenzenesulfonyl)-N-methyl-N'-(p-toluenesulfonyl)hydrazine] |  | 127 % T/C |  |
| CN(NS(=O)(=O)c1ccc(Cl)cc1)S(=O)(=O)c1ccc(Br)cc1 [Compound 40, N-(p-bromobenzenesulfonyl)-N'-(p-chlorobenzenesulfonyl)-N-methylhydrazine] | 145 % T/C |  |  |
| CN(NS(=O)(=O)c1ccc2ccccc2c1)S(=O)(=O)c1ccc(Br)cc1 [Compound 42, N-(p-bromobenzenesulfonyl)-N-methyl-N-(2-naphthalenesulfonyl)hydrazine] | 146 % T/C |  |  |
| CN(NS(=O)(=O)C=Cc1ccccc1)S(=O)(=O)c1ccc(Br)cc1 [Compound 43, N-(p-bromobenzenesulfonyl)-N-methyl-N'-(2-styrenesulfonyl)hydrazine] | 178 % T/C |  |  |
| CN(NS(C)(=O)=O)S(=O)(=O)c1ccc(Br)cc1 [Compound 44] | 221 % T/C |  |  |
| Cc1ccc(S(=O)(=O)NN(C)S(=O)(=O)c2ccc3ccccc3c2)cc1 [Compound 46, N-(N'-naphthalenesulfonyl)-N-methyl-N'-(p-toluenesulronyl)hydrazine] |  | 120 % T/C |  |
| COc1ccc(S(=O)(=O)NN(C)S(=O)(=O)Cc2ccccc2)cc1 [Compound 51] | 182 % T/C |  |  |
| CN(NS(=O)(=O)c1ccc(Br)cc1)S(=O)(=O)Cc1ccccc1 [Compound 53] | 163 % T/C |  |  |
| CN(NS(=O)(=O)c1ccc2ccccc2c1)S(=O)(=O)Cc1ccccc1 [Compound 54] |  | 115 % T/C |  |
| CN(NS(=O)(=O)Cc1ccccc1)S(=O)(=O)Cc1ccccc1 [Compound 55, N,N'-bis(benzylsulfonyl)-N-methylhydrazine] | 152 % T/C |  |  |
| CN(NS(C)(=O)=O)S(=O)(=O)Cc1ccccc1 [Compound 56] | 203 % T/C |  |  |
| CN(NS(=O)(=O)C=Cc1ccccc1)S(=O)(=O)C=Cc1ccccc1 [Compound 57] | 171 % T/C |  |  |
| CC(=O)Nc1ccc(S(=O)(=O)N(C)NS(=O)(=O)c2ccc(Br)cc2)cc1 [Compound 58] | 164 % T/C |  |  |
| CN(NS(C)(=O)=O)S(=O)(=O)c1ccc(I)cc1 [Compound 62] | 195 % T/C |  |  |
